In patent US6710048B2, “Pyrazine derivatives as modulators of tyrosine kinases” (Ortho-McNeil Pharmaceutical, Inc., priority 2000, dated 2004):

Legend:
[1] = target: T1, PDGF-R (platelet derived growth factor receptor) (Homo sapiens, UniProt P09619); test: PDGF-R kinase selectivity assay; format: biochemical; details: Table 4 kinase selectivity; read-out: IC50, Assay 14 PDGF-R
T1 construct: polyhistidine (N)
Method: (§1) Assays to test compound inhibition of other kinases were preformed using methods that measure the amount of phosphorylation of a biotinylated peptide substrate. Biotinylated peptide substrates were selected from the literature as appropriate for the enzyme being evaluated. […] Assay conditions vary slightly for each protein kinase, for example, insulin receptor kinase requires 10 mM MnCl2 for activity and Calmodulin-dependent protein kinase requires calmodulin and 2 mM CaCl2. The reaction mixture was dispensed into the wells of a streptavidin coated Flashplate and 1 μl drug stock in 100% DMSO was added to a 100 μl reaction volume resulting in a final concentration of 1% DMSO in the reaction. Enzyme was diluted in 50 mM Tris-HCl pH=8.0, 0.1% BSA and added to each well. The reaction was incubated for one hour at 30° C. in the presence of compound. After one hour the reaction mix was aspirated from the plate and the plate was washed with PBS containing 100 mM EDTA. The plate was read on a scintillation counter to determine ^33P-γ-ATP incorporated into the immobilized peptide. Test compounds were assayed in duplicate at 8 concentrations [100 tM, 10 μM, 1 μM, 100 nM, 10 nM, 1 nM, 100 μM, 10 μM]. A maximum and minimum signal for the assay was determined on each plate. The IC50 was calculated from the dose response curve of the percent inhibition of the maximum signal in the assay according to the formula [max signal−background/test compound signal−background (100)=% inhibition] by graphing the percent inhibition against the log concentration of test compound. Known inhibitor compounds appropriate for the kinase being assayed were also included on each plate.
(§2) VEGF-R (vascular endothelial growth factor receptor-2) is a fusion protein containing a polyhistidine tag at the N-terminus followed by amino acids 786-1343 of the rat VEGF-R2 kinase domain (GenBank Accession #U93306). CDK1 (cyclin dependent kinase 1) is isolated from insect cells expressing both the human CDK1 catalytic subunit and its positive regulatory subunit cyclin B (New England Biolabs, Beverly, Mass., Cat. #6020). CDK4 (cyclin dependent kinase 4) contains amino acids 769 to 921 of the mouse […] protein found in the GST-retinoblastoma protein construct (Santa Cruz Biotechnology, Santa Cruz, Calif.; Cat. #SC-4112). Insulin Receptor Kinase consists of residues 941-1313 of the cytoplasmic domain of the beta-subunit of the human insulin receptor (BIOMOL, Plymouth Meeting, Pa., Cat. #SE-195). Protein Kinase A is the catalytic subunit of cAMP dependent protein kinase-A purified from bovine heart (Upstate Biotech, Lake Placid, N.Y., Cat#14-114). PKC (protein kinase-C) is the gamma or beta isoform of the human protein produced in insect cells (BIOMOL, Plymouth Meeting, Pa., Cat. #SE-143). Casein Kinase 1 is a truncation at amino acid 318 of the C-terminal portion of the rat CK1 delta isoform produced in E.coli (New England Biolabs, Beverly, Mass., Cat. #6030). Casein Kinase 2 includes the alpha and beta subunits of the human CK2 protein produced in E.coli (New England Biolabs, Beverly, Mass., Cat. #6010). Calmodulin Kinase (calmodulin-dependent protein kinase 2) is a truncated version of the alpha subunit of the rat protein produced in insect cells (New England Biolabs, Beverly, Mass., Cat. #6060). Glycogen Synthase Kinase-3 is the beta isoform of the rabbit enzyme produced in E. coli (New England Biolabs, Beverly, Mass., Cat. #6040). MAP Kinase is the rat ERK-2 isoform containing a polyhistidine tag at the N-terminus produced in E. coli. and activated by phosphorylation with MEK1 prior to purification (BIOMOL, Plymouth Meeting, Pa., Cat. #SE-137). EGFR (epidermal growth factor receptor) is purified from human A431 cell membranes (Sigma, St. Louis, Mo., Cat.# E3641). PDGF-R (platelet derived growth factor receptor) is a fusion protein containing a polyhistidine tag at the N-terminus followed by nucleotides 1874-3507 of the human PDGF-R beta subunit kinase domain (Accession #M21616). […]

Insulin Receptor Kinase = target: T2, Insulin Receptor Kinase (Homo sapiens, UniProt P06213); test: Insulin Kinase selectivity assay; format: biochemical; details: Table 4 kinase selectivity; read-out: IC50, Assay 13 Insulin Kinase
T2 construct: consists of residues 941-1313 of the cytoplasmic domain of the beta-subunit of the human insulin receptor; purchased BIOMOL SE-195
Method: as §1, §2

T2 sequence (P06213 980-1352): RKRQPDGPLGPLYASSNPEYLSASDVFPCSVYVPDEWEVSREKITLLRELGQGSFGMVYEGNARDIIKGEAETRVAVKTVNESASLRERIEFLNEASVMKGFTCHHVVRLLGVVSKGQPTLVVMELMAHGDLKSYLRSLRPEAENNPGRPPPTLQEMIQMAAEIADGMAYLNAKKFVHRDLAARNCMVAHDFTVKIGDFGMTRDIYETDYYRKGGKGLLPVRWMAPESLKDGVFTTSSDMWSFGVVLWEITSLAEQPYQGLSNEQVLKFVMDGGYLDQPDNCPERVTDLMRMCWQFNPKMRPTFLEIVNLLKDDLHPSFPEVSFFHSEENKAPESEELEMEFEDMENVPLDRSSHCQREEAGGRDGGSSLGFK
T1 sequence (P09619 554-1106 limits assumed): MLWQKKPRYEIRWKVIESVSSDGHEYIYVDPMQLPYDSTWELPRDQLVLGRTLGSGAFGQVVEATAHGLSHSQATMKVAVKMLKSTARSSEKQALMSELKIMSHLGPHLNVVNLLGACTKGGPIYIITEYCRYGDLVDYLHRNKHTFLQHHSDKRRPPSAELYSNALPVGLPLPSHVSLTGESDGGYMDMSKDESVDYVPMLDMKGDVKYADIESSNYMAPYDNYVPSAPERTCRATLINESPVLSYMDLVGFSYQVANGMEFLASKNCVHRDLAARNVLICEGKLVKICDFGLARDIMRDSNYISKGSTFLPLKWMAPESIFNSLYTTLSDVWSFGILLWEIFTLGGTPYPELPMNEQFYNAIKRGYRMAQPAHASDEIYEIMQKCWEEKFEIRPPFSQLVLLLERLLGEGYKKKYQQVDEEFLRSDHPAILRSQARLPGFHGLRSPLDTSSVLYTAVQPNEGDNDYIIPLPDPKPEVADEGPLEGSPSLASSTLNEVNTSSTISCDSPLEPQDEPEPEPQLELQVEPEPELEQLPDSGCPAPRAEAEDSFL

| Compound | IC50 [1] [nM] | IC50 (Insulin Receptor Kinase) [nM] |
| --- | --- | --- |
| Clc1cccc(Nc2cncc(-c3cncc(NCCCN4CCCCC4)c3)n2)c1 [Cmd 73] | 175 | > 100000 |
| OCCCNc1cncc(-c2cncc(Nc3cccc(Cl)c3)n2)c1 [Cmd 4] |  | 1690 |
| Clc1cccc(Nc2cncc(-c3cncc(NCCCn4cncn4)c3)n2)c1 [Cmd 76] | 725 | > 100000 |
| Clc1cccc(Nc2cncc(-c3cncc(NCCCc4cccnc4)c3)n2)c1 [Cmd 72] | 876 | > 100000 |
| CN(C)CCCNc1cncc(-c2cncc(Nc3cccc(Cl)c3)n2)c1 [Cmd 35] | 2500 | > 100000 |
| OCCCCNc1cncc(-c2cncc(Nc3cccc(Cl)c3)n2)c1 [Cmd 32] | 2800 | > 100000 |
| CN(C)CCNc1cncc(-c2cncc(Nc3cccc(Cl)c3)n2)c1 [Cmd 33, N′-[5-[6-[(3-chlorophenyl)amino]pyrazinyl]-3-pyridinyl]-N^2,N^2-dimethyl-1,2-ethanediamine] | 29200 | > 100000 |
| Clc1cccc(Nc2cncc(-c3cncc(NCCCc4ccncc4)c3)n2)c1 [Cmd 71] | 1000 | > 100000 |
| O=C(NCCCO)c1cncc(-c2cncc(Nc3cccc(Cl)c3)n2)c1 [Cmd 39] | 2800 | 1800 |
| Clc1cccc(Nc2cncc(-c3cncc(NCCCn4cccn4)c3)n2)c1 [Cmd 75] |  | > 100000 |
